The source of these data is patent US7723063B2, “Methods for measuring levels of bioactive human hepcidin” (Intrinsic Lifesciences, priority 2004, dated 2010).

≈ marks a conversion by molar mass, not a printed value. Ends that are not written are not given here. Peptide text beside a SMILES is read from it.

Data set [1] relates to Yersinia enterocolitica. In words: Microbicidal kinetics. The data set is classed as cell-based. How it is done: Microbicidal Kinetics. An experiment was conducted to examine the microbicidal kinetics of bass hepcidin and to compare its killing activity to another bass antimicrobial peptide, moronecidin. Moronecidin is a 22 amino acid, linear, amphipathic α-helical peptide which was originally co-purified from the gill of HSB with hepcidin. […] We compared the killing kinetics of hepcidin and moronecidin against Y enterocolitica at 30 min intervals over a 3 h time period using 2× their MIC concentrations for this organism (44 and 10 μM; FIG. 12). The bactericidal activities of the peptides were assessed by plating cultures and counting CFUs after overnight incubation at 37° C.

For data set [2], the system named is spores of A. niger. In words: Germination and fungicidal assay. In kind it is cell-based. The conditions noted are these: 48 hr exposure, re-culture in fresh medium.
Protocol: Germination and Fungicidal Assay. Spores of A. niger were harvested and resuspended in sterile water containing 0.05% TWEEN-80™, and the concentration adjusted to approximately 10^8 spores per ml. Spores were diluted in half-strength PDB containing 16 μM chloramphenicol to a final concentration of 10^5 spores per ml. Ninety μl of the suspension was placed in sterile flat-bottomed polystyrene 96-well plates with 10 μl of serial dilutions of peptide (440 μM, 220 μM, 110 μM, 55 μM), in water. Germination of spores was allowed to proceed for 2 days at 30° C. in the dark, after which hyphae density was measured by absorbance at 600 nm. After 2 days of incubation, the contents of wells showing no germination were centrifuged for 3 min at 5000 rpm, resuspended in 50 μl of fresh PDB media, and triplicate aliquots spotted onto PDB agar plates. Plates were placed at 30° C. for 3 days to monitor germination of hyphae. The absence of germination indicated fungicidal activity.
Fungicidal Activity. […] After 48 hr exposure to the respective peptides, spores were removed and cultured in fresh medium and examined 48 h later for growth.
The subject of data set [3] is S. iniae. How it is done:
(§1) Antimicrobial Synergism Studies. Synergism between synthetic bass hepcidin and moronecidin was tested in checkerboard liquid growth inhibition assays. In brief, two-fold serial dilutions of each peptide were made in water, and 10 μl of the solution added to the bottom of the wells of a 96-well plate. Ninety μl of exponential phase bacterial cultures (OD600˜0.2) were freshly diluted in culture media to ˜2×10^5 CFU ml^−1 and added to peptide solutions. Controls consisted of wells with the appropriate volume and concentration of each peptide alone, or of water. Bacterial viability was assayed at 2 h by plating aliquots of the bacterial suspension for CFU enumeration. The bacterial suspensions were further incubated overnight at 37° C. and bacterial growth was monitored by optical density at 600 nm for determination of MIC. Synergistic activity was quantify as fractional inhibition concentration (FIC) index=([A]/MICA)+([B]/MICB), where MICA and MICB are the MICs of the peptides alone and [A] and [B] are the MICs of A and B when used together.
(§2) To test for synergism between the two antimicrobial peptides in vitro, we conducted liquid growth inhibition/killing experiments with a Gram-positive (S. iniae) and a Gram-negative bacterium (Y enterocolitica) using varying concentrations of the two synthetic peptides. The bacteria were cultured in the presence of synthetic bass hepcidin and moronecidin and plated after 2 h incubation at 37° C. for determination of CFU (FIG. 14).

The test system of data set [4] is Y. enterocolitica. How it is done: as §1, §2
The test system of data set [5] is E. coli.
Data set [6] can be described thus: Aggregation of bioactive hepcidin in phosphate buffered saline. The data set is classed as physicochemical. To be noted: pH 7.4. From the text: Development of bass hepcidin enzyme/ligand conjugates for ELISA. We took advantage of the only available (N-terminal) primary amine group present in refolded bass hepcidin for conjugation to KLH using EDC (1-Ethyl-3-[3-Dimethylamino-propyl] carbodiimide HCl) and DSS (Disuccinimidyl suberate) chemistries. These approaches were very difficult to develop and apply to production of hepcidin conjugates due to hepcidin's inherent solubility issues in higher pH coupling buffers. […] We have encountered significant issues when trying to solubilize hepcidin at the higher concentrations (1-3 mg ml^−1) in standard coupling buffers desirable for production of high activity, soluble hepcidin-HRP conjugates for ELISA.

Data set [7] is described as follows: Serum hepcidin after IP injection of synthetic bass hepcidin, competitive ELISA. The data set is classed as in vivo. The conditions noted are these: HSB. On the procedure:
Competition ELISA Protocol. A high-binding 96-well microplate (Corning, Inc., Cat. No. 3590) was coated with 100 μl of a 1:5,000 dilution of affinity-purified rabbit anti-HSB hepcidin antibody (0.68 mg/ml) in carbonate-bicarbonate coating buffer pH 9.6 (Sigma-Aldrich Corp., Cat. No. C-3041). One well contained 100 μl carbonate-bicarbonate coating buffer and no antibody. The plate was covered and placed at 4°C. Following a suitable period of incubation at 4° C., the plate was washed with three, 300 μl volumes of PBS-T (PBS containing 0.05% TWEEN-20™). Next, the plate was blocked with 250 μl of a 2% (w/v) dry milk solution in PBS, covered, and incubated for one hour at RT, shaking at 150 rpm. Samples and standard curves were prepared in a separate 96-well plate. Serum, plasma, and urine samples were diluted with PBS diluted to be within the working range of the standard curve. An aliquot of biotinylated AEEAc-derivatized hepcidin (0.21 mg/ml diluted 1:2000) was added to each well to give a final biotinylated hepcidin concentration of 94.5 ng/ml. From each well of the sample/standard curve dilution plate, 100 μl was transferred to the antibody coated and blocked plate. The plate was covered and incubated at RT, shaking at 150 rpm, for 1 hour to allow competitive binding to occur. […] Absorbance at 450 nm was determined using a THERMOMAX™ microplate reader with SOFTMAX PRO™ software (Molecular Devices). Data were analyzed using a spreadsheet program. […]
The data from these studies is separated by double lines. […] The second data set is from a field study Production Tank 32, where HSB without apparent clinical disease ‘Clinically Healthy’ and “Infected/Moribund” HSB were sampled and their serum hepcidin levels determined (Rows 4-5). […] The fourth experiment is a clinical where the indicated quantities of synthetic, bioactive, bass hepcidin was injected IP and measured in their serum at the indicated timepoints (Rows 8-11). […]
(ELISA stands for enzyme-linked immunosorbent assay.)

In data set [8] the test system is HSB erythrocytes. Put plainly: Hemolytic activity. In kind it is cell-based, striped bass. How it is done:
Hemolytic activity. Freshly packed striped bass erythrocytes (3 ml) isolated from young fingerlings (˜30 g) and adult fish (˜300 g) were washed with phosphate-buffered saline (PBS; pH 7.4) until the supernatant was colorless and resuspended in PBS (30 ml) supplemented with glucose (0.2%, w/v). Synthetic bass hepcidin (10 μl of 880-55 μM) was added to 90 μl of a 1% suspension of washed erythrocytes in microcentrifuge tubes. Triplicate samples were incubated for 30, 90, 180, and 240 min at 37° C. then centrifuged for 10 min at 3500 rpm. Supernatant from the erythrocyte suspension (70 μl) was placed in a microtiter plate and optical density at 405 nm determined. The percentage of hemolysis in hepcidin-treated erythrocytes was expressed relative to hemolysis obtained with a control erythrocyte suspension treated with 0.1% sodium dodecyl sulphate (SDS, 100% hemolysis).
Hemolytic Activity. The hemolytic activity of bass hepcidin was tested with erythrocytes from HSB. […] Greater than 98% of the bass erythrocytes exposed to 44 μM hepcidin for 3 h at 37° C. remained intact. This exposure corresponds to a time point when 96% of Y. enterocolitica exposed to 44 μM hepcidin have been killed (see FIG. 6, Panel A). After 4 h incubation with 44 μM hepcidin, more than 97% of the erythrocytes remained intact. No hemolysis was observed after 4 h at hepcidin concentrations of 11 μM and lower.

Data set [9] can be described thus: Direct binding to ferric iron by NMR. From the text: Instead, hepcidin has shown to have the capability of exerting its effects on the innate immune response of teleosts through a combination of activities. The bass model employed in these studies provides a powerful approach to further elucidate hepcidin function(s), including it potential role in hypoferremia in teleosts.

The term MIC denotes the lowest concentration that inhibits growth of the organism. With “FFHHIFRGIVHVGKTIHKLVTG-NH2 (C-terminus assumed) [moronecidin, reference compound]”, the “Decrease in CFU” value in [1] (10 μM (2× MIC), after 30 min) is 90%. Besides, in [2], the Fungicidal concentration is 10 µM. The MIC in data set [3] was 2.5 µM; in [4] it was 5 µM; in data set [5] it was 5 µM.

As to `CSCC[C@@H]1NC(=O)[C@H](CC(N)=O)NC(=O)[C@@H]2CCCN2C(=O)[C@@H]2CSSC[C@@H]3NC(=O)[C@H](C(C)C)NC(=O)CNC(=O)[C@H](CSSC[C@@H]4NC(=O)[C@H](CSSC[C@H](NC(=O)[C@H](CC(N)=O)NC4=O)C(=O)N2)NC(=O)[C@H](Cc2ccccc2)NC(=O)[C@H](CCCNC(=N)N)NC(=O)[C@@H](NC(=O)CN)CSSC[C@@H](C(=O)N[C@@H](CCCNC(=N)N)C(=O)N[C@@H](Cc2ccccc2)C(=O)O)NC3=O)NC(=O)CNC(=O)[C@H](CO)NC1=O` [bass hepcidin] (HELM PEPTIDE1{G.C.R.F.C.C.N.C.C.P.N.M.S.G.C.G.V.C.C.R.F}$PEPTIDE1,PEPTIDE1,2:R3-19:R3|PEPTIDE1,PEPTIDE1,5:R3-8:R3|PEPTIDE1,PEPTIDE1,6:R3-15:R3|PEPTIDE1,PEPTIDE1,9:R3-18:R3$$$V2.0; N-terminus and C-terminus assumed), the “Concentration at which it readily aggregates” value in data set [6] amounted to 0.05 µg/mL. In addition, the level at 3 h in data set [7] (50 ug, 50 μg IP) was determined as 39.3 µg/mL; in data set [7] (300 ug, 300 μg IP), 204 µg/mL. The compound also registered a level at 6 h in [7] (2 × 300 μg IP (0 and 3 h), sampled 6 h) of 230 µg/mL. Moreover, the “Time required for 90% reduction of CFU from the original inoculum” value in data set [1] (44 μM) is “Two and half hours”. Also, the “State of cultures at 30 min” value in data set [1] (22 and 44 μM) is given as “actually growing”. The compound further yielded a minimum inhibitory concentration (MIC) in [1] (Y. enterocolitica) of 22 µM (≈ 49.6 µg/mL). The same compound gave a Fungicidal concentration in data set [2] of 44 µM. Moreover, the “Antimicrobial activity against S. iniae” value in [3] (2 h incubation, concentrations as high as 88 μM) is “no detectable antimicrobial activity”. Also, the Hemolytic activity is listed as 0% of controls in data set [8] (5.5 μM, 30 min., 37° C.); 0% of controls in [8] (5.5 μM, 90 min.); 0% of controls in data set [8] (5.5 μM, 180 min.); 0% of controls in data set [8] (11 μM, 30 min.); 0% of controls in data set [8] (11 μM, 90 min.); 0% of controls in [8] (11 μM, 180 min.). Further, the Hemolytic activity is 0% of controls in [8] (22 μM, 30 min.); 0% of controls in data set [8] (22 μM, 90 min.); 0.4 ± 0.15% of controls in data set [8] (22 μM, 180 min.); 0.4 ± 0.4% of controls in [8] (22 μM, 240 min.); 0% of controls in data set [8] (44 μM, 30 min.); 0% of controls in data set [8] (44 μM, 90 min.). The Hemolytic activity was 1.4 ± 0.3% of controls in data set [8] (44 μM, 180 min.) and 2.5 ± 1.2% of controls in data set [8] (44 μM, 240 min.). For the same compound, the Erythrocytes remaining intact result is “Greater than 98%” in data set [8] (44 μM, 3 h, 37° C.) and “more than 97%” in data set [8] (44 μM, 4 h). Moreover, the Hemolysis entry in [8] (4 h, 11 μM and lower) was “No hemolysis”. Also, the “Direct binding to ferric iron” value in [9] is “no evidence”.
